# Legend:
# [1] = target: Neuronal acetylcholine receptor subunit alpha-7 (Rattus norvegicus) (UniProt Q05941); test: Potency index, ratio of nicotine EC50 to test compound EC50 for rat alpha7 nAChR
# [2] = target: Neuronal acetylcholine receptor subunit alpha-7 (Rattus norvegicus) (UniProt Q05941); test: Potency index, ratio of nicotine Ki to test compound Ki for rat alpha7 nAChR
# [3] = target: T1, Neuronal acetylcholine receptor; alpha4/beta2 (Rattus norvegicus, UniProt P09483+P12390)
# Description: Agonist activity at rat alpha4beta2 nAChR
# [4] = target: T1, Neuronal acetylcholine receptor; alpha4/beta2; test: Binding affinity to rat alpha4beta2 nAChR; type: protein-complex assay
# [5] = target: T2, Neuronal acetylcholine receptor subunit alpha-7 (Rattus norvegicus, UniProt Q05941)
# Description: Binding affinity to rat alpha7 nAChR
# [6] = target: T3, Neuronal acetylcholine receptor; alpha4/beta2 (Rattus norvegicus) (UniProt P09483+P12390); test: Potency index, ratio of nicotine EC50 to test compound EC50 for agonist activity at rat alpha4beta2 nAChR; type: protein-complex assay
# [7] = target: T2, Neuronal acetylcholine receptor subunit alpha-7; remark: listed apart in the source
# Description: Agonist activity at rat alpha7 nAChR
# [8] = Neuroprotective activity in rat neuron assessed as glutamic acid induced intracellular calcium level at 3 ug/ml preincubated for 5 mins followed by glutamic acid stimulation and measured for 30 mins (reference value: 305%); type: functional; details: time 35 min
# [9] = Neuroprotective activity in rat neuron assessed as glutamic acid induced intracellular calcium level at 0.5 ug/ml preincubated for 5 mins followed by glutamic acid stimulation and measured for 30 mins (reference value: 305%); type: functional; details: time 35 min
# [10] = Neuroprotective activity in rat neuron assessed as glutamic acid induced intracellular calcium level at 1 ug/ml preincubated for 5 mins followed by glutamic acid stimulation and measured for 30 mins (reference value: 305%); type: functional; details: time 35 min
# [11] = Neuroprotective activity in rat neuron assessed as NMDA-induced intracellular calcium level at 1 ug/ml preincubated for 5 mins followed by glutamic acid stimulation and measured for 20 mins (reference value: 235%); type: functional; details: time 25 min
# [12] = Antagonist activity at 5HT1 in Wistar rat stomach fundus strip assessed as inhibition of 5-hydroxy-tryptamine evoked contraction preincubated for 20 mins followed by 5-HT addition; type: tissue-based
# [13] = Displacement of [3H]nicotine from dopamine D4.2 receptor (unknown origin); design: species or system Homo sapiens
# [14] = test system: Rattus norvegicus; test: Cognitive enhancing effect in Wistar rat assessed as reversal of scopolamine-induced amnesia at 0.6 micromol/kg, sc by passive-avoidance test relative to control; type: functional; details: dose 0.6 µmol/kg
# [15] = Acute toxicity in po dosed dog administered as single dose for 28 days; type: organism-based, Canis lupus familiaris; details: in vivo, time 28 day
# [16] = target: B2 bradykinin receptor (Homo sapiens, UniProt P30411); test: Displacement of […] from B2 bradykinin receptor (unknown origin)
# [17] = target: D(3) dopamine receptor (Homo sapiens, UniProt P35462); test: Displacement of [3H]nicotine from dopamine D3 receptor (unknown origin)
# [18] = target: Muscarinic acetylcholine receptor M2 (Homo sapiens, UniProt P08172); test: Displacement of [3H]nicotine from muscarinic M2 receptor (unknown origin)
# [19] = target: T3, Neuronal acetylcholine receptor; alpha4/beta2 (Rattus norvegicus); test: Agonist activity at alpha4beta2 nAChR in rat thalamic synaptosomes assessed as 86Rb efflux relative to tetramethylammonium; type: subcellular; details: Thalamus, filed as agonist
# [20] = target: Muscarinic acetylcholine receptor M1 (Homo sapiens, UniProt P11229); test: Displacement of [3H]nicotine from muscarinic M1 receptor (unknown origin)
# [21] = Displacement of [3H]nicotine from angiotensin II receptor (unknown origin); design: species or system Homo sapiens
# [22] = target: 5-hydroxytryptamine receptor 2A (Homo sapiens, UniProt P28223); test: Displacement of […] from 5-hydroxytryptamine receptor 2A (unknown origin)
# [23] = Acute toxicity in po dosed mouse administered as repeated dose for 28 days; type: organism-based; details: in vivo, time 28 day
# [24] = target: 5-hydroxytryptamine receptor 3A (Homo sapiens, UniProt P46098); test: Displacement of […] from 5-hydroxytryptamine receptor 3A (unknown origin)
# [25] = In vivo agonist activity at nAChR in rat assessed as dopamine level in cortex at 3.6 micromol/kg, sc by microdialysis relative to control; type: functional; details: dose 3.6 µmol/kg
# [26] = Displacement of [3H]nicotine from sodium channel site2 (unknown origin); design: species or system Homo sapiens
# [27] = target: T1, Neuronal acetylcholine receptor; alpha4/beta2; remark: listed apart in the source
# Description: Agonist activity at alpha4beta2 nAChR in rat thalamic synaptosomes assessed as increase in 86Rb efflux
# [28] = target: Gastrin/cholecystokinin type B receptor (Homo sapiens, UniProt P32239); test: Displacement of [3H]nicotine from cholecystokinin receptor type B (unknown origin)
# [29] = test system: Rattus norvegicus; test: Memory enhancing effect in rat model of mecamylamine-induced amnesia assessed as decrease in latency to find platform at 0.3 to 3 micromol/kg, po by water-navigation test relative to control; type: functional; design: scale not given: the % may be the effect or the level left; details: dose 0.3-3 µmol/kg; at 0.3 to 3 µmol/kg
# [30] = target: Endothelin receptor type B (Homo sapiens, UniProt P24530); test: Displacement of [3H]nicotine from Endothelin receptor type B (unknown origin)
# [31] = target: Cholecystokinin receptor type A (Homo sapiens, UniProt P32238); test: Displacement of [3H]nicotine from cholecystokinin receptor type A (unknown origin)
# [32] = In vivo agonist activity at nAChR in rat assessed as serotonin level in cortex at 3.6 micromol/kg, sc by microdialysis relative to control; type: functional; details: dose 3.6 µmol/kg
# [33] = target: 5-hydroxytryptamine receptor 1A (Homo sapiens, UniProt P08908); test: Displacement of […] from 5-hydroxytryptamine receptor 1A (unknown origin)
# [34] = target: Neuropeptide Y receptor type 2 (Homo sapiens, UniProt P49146); test: Displacement of [3H]nicotine from NPY2R (unknown origin)
# [35] = target: Histamine H3 receptor (Homo sapiens, UniProt Q9Y5N1); test: Displacement of [3H]nicotine from Histamine H3 receptor (unknown origin)
# [36] = Acute toxicity in po dosed mouse administered as single dose for 28 days; type: organism-based; details: in vivo, time 28 day
# [37] = target: Endothelin-1 receptor (Homo sapiens, UniProt P25101); test: Displacement of [3H]nicotine from Endothelin receptor type A (unknown origin)
# [38] = target: Thromboxane A2 receptor (Homo sapiens, UniProt P21731); test: Displacement of [3H]nicotine from Thromboxane A2 (unknown origin)
# [39] = target: Muscarinic acetylcholine receptor M3 (Homo sapiens, UniProt P20309); test: Displacement of [3H]nicotine from muscarinic M3 receptor (unknown origin)
# [40] = In vivo agonist activity at nAChR in rat assessed as acetylcholine level in cortex at 3.6 micromol/kg, sc by microdialysis relative to control; type: functional; details: dose 3.6 µmol/kg
# [41] = Displacement of [3H]nicotine from Leukotriene B4 receptor (unknown origin); design: species or system Homo sapiens
# [42] = Displacement of [3H]nicotine from neurokinin receptor (unknown origin); design: species or system Homo sapiens
# [43] = test system: Rattus norvegicus; test: Memory enhancing effect in Sprague-Dawley rat model of ibotenic-acid-induced impairment of forebrain cholinergic projection system assessed as improvement in reference memory at 0.36 to 1.4 micromol/kg, po by radial arm maze test relative to control; type: functional; details: dose 0.36-1.4 µmol/kg
# [44] = organism: Rattus norvegicus; test: Agonist activity at nAChR in rat striatal synaptosomes assessed as [3H]dopamine release relative to tetramethylammonium; type: subcellular; details: Striatum, filed as agonist
# [45] = Acute toxicity in po dosed dog administered as repeated dose for 28 days; type: organism-based, Canis lupus familiaris; details: in vivo, time 28 day
# [46] = target: T3, Neuronal acetylcholine receptor; alpha4/beta2 (Rattus norvegicus); test: Agonist activity at rat alpha4beta2 expressed in Xenopus oocytes assessed as peak activation at 100 uM relative to control; type: cell-based; details: Oocyte, filed as agonist
# [47] = In vivo agonist activity at nAChR in rat assessed as nor-epinephrine level in cortex at 3.6 micromol/kg, sc by microdialysis relative to control; type: functional; details: dose 3.6 µmol/kg
# [48] = target: Glutamate [NMDA] receptor; test: Displacement of [3H]nicotine from NMDA receptor (unknown origin); type: protein-complex assay, Homo sapiens
# [49] = target: T1, Neuronal acetylcholine receptor; alpha4/beta2; test: Inhbition of [3H] nicotine binding to rat brain alpha4beta2 nAChR
# [50] = organism: Mus musculus; test: animal or person
# Description: Antinociceptive activity against mecamylamine-treated mouse
# [51] = Toxicity in iv dosed rat; type: organism-based; details: in vivo
# [52] = Displacement of [3H]-(-)-nicotine from rat cerebral cortex nAChR incubated for 60 mins by liquid scintillation spectrometry
# [53] = organism: Mus musculus; test: animal or person; remark: listed apart in the source
# Description: Antinociceptive activity in naloxone treated mouse assessed as induction of Straub-tail response
# [54] = target: Neuronal acetylcholine receptor subunit alpha-7 (Homo sapiens, UniProt P36544)
# Description: Displacement of [125I]alpha-bungarotoxin from human alpha7 nAChR expressed in K28 cell membrane
# [55] = organism: Mus musculus; test: animal or person; remark: listed apart in the source
# Description: Antinociceptive activity in mouse
# [56] = target: GABA-A receptor alpha-1/beta-1 (Bos taurus, UniProt P08219+P08220)
# Description: Competitive inhibition of bovine GABAA alpha1beta1 expressed in Xenopus laevis oocytes
# [57] = target: Acetylcholinesterase (Bos taurus, UniProt P23795)
# Sequence of Acetylcholinesterase (P23795 whole entry): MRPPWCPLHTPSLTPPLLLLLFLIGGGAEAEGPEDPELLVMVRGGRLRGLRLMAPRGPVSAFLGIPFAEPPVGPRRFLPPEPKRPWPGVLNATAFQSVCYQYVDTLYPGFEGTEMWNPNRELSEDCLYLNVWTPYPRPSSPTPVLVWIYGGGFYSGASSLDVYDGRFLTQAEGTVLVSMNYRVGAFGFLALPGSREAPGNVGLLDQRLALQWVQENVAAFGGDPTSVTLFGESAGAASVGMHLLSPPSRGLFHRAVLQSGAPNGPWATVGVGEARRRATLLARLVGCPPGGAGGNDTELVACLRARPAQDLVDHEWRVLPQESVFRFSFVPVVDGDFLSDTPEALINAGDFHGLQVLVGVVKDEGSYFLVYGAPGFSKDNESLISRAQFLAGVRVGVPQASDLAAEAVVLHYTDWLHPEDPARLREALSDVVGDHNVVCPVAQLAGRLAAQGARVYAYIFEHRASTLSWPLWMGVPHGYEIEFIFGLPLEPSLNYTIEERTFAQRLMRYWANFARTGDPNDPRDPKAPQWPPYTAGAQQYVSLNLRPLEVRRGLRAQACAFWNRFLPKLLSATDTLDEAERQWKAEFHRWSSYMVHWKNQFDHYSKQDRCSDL
# T1 sequence (P09483 whole entry): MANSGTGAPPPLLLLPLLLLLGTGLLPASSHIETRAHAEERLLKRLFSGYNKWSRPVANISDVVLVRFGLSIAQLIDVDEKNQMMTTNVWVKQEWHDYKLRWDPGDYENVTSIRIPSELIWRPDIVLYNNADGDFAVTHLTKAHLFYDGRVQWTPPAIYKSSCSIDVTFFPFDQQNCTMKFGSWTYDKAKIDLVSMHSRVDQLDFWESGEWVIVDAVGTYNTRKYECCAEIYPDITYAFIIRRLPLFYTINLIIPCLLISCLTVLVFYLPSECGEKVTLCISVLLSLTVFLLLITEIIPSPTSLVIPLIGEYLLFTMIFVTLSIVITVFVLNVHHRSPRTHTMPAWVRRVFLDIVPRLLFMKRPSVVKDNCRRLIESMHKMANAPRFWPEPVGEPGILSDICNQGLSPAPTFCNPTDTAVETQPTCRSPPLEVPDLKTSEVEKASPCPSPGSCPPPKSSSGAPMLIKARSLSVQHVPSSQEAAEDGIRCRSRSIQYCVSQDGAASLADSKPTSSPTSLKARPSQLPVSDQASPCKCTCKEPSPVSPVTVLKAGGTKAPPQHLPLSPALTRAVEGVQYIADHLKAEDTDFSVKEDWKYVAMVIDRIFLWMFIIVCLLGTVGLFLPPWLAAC
# T1 sequence (P12390 whole entry): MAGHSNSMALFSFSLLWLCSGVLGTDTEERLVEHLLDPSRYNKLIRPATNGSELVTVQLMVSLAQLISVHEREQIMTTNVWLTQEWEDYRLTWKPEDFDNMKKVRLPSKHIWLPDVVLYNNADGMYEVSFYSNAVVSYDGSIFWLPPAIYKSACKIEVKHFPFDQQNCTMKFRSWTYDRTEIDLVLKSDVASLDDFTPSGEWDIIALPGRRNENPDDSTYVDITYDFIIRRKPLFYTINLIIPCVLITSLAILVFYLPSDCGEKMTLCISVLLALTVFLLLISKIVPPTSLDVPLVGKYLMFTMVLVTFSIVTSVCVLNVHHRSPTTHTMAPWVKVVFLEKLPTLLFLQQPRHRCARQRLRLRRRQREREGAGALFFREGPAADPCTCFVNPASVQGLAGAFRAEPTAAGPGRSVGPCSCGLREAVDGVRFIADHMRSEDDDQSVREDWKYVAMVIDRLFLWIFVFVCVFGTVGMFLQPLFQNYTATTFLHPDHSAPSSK
# Sequence of Neuronal acetylcholine receptor subunit alpha-7 (Rattus norvegicus) (Q05941 whole entry): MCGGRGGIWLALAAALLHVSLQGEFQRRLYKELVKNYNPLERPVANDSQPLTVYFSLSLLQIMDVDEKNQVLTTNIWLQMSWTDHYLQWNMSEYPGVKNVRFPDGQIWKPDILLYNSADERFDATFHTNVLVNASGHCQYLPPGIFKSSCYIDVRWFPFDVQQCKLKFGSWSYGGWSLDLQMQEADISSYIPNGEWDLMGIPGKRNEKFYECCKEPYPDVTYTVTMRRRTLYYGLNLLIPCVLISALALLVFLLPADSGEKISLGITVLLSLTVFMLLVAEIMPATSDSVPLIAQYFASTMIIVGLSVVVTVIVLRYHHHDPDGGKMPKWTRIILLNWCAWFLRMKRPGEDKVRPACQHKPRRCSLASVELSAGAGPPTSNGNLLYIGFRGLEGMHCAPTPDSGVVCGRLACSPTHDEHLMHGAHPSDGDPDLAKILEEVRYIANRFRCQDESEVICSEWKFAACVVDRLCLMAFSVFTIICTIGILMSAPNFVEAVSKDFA
# T2 sequence (Q05941 whole entry): as above
# Sequence of Endothelin-1 receptor (P25101 whole entry): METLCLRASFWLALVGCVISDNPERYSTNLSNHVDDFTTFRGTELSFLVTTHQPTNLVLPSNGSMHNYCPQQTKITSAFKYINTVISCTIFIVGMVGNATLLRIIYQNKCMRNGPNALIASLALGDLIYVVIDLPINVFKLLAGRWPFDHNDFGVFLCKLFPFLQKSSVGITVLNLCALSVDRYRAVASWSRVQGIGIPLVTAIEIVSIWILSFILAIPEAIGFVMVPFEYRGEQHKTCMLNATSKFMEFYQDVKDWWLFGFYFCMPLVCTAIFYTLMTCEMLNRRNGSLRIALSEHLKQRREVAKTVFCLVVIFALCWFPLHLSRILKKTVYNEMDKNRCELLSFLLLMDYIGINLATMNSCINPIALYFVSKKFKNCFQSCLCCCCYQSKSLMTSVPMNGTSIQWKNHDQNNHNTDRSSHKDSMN
# Sequence of 5-hydroxytryptamine receptor 3A (P46098 whole entry): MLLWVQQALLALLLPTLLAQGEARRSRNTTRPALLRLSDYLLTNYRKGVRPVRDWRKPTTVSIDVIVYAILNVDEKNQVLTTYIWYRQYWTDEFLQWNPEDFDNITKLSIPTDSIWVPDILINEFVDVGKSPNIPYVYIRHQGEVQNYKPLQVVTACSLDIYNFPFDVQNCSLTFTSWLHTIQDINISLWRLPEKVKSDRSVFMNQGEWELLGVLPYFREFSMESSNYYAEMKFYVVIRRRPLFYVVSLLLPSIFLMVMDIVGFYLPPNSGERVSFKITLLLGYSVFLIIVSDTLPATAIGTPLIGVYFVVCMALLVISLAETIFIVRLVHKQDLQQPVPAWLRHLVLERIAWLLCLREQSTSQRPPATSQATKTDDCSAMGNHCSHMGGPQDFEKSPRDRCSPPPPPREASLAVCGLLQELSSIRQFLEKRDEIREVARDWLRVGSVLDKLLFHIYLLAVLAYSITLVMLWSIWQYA
# Sequence of Histamine H3 receptor (Q9Y5N1 whole entry): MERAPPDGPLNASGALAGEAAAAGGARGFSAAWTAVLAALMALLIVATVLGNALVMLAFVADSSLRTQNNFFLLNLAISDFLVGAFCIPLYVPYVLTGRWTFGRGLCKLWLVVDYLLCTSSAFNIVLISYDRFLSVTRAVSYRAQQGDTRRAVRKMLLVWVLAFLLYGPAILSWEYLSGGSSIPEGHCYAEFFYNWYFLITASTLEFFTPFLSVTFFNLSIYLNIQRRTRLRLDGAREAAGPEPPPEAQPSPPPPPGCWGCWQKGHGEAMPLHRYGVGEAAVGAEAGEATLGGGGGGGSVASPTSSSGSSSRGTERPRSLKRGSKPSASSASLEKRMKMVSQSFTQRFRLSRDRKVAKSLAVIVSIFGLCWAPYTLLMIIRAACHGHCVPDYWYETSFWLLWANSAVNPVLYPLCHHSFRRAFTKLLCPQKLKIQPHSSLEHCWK
# Sequence of Muscarinic acetylcholine receptor M3 (P20309 whole entry): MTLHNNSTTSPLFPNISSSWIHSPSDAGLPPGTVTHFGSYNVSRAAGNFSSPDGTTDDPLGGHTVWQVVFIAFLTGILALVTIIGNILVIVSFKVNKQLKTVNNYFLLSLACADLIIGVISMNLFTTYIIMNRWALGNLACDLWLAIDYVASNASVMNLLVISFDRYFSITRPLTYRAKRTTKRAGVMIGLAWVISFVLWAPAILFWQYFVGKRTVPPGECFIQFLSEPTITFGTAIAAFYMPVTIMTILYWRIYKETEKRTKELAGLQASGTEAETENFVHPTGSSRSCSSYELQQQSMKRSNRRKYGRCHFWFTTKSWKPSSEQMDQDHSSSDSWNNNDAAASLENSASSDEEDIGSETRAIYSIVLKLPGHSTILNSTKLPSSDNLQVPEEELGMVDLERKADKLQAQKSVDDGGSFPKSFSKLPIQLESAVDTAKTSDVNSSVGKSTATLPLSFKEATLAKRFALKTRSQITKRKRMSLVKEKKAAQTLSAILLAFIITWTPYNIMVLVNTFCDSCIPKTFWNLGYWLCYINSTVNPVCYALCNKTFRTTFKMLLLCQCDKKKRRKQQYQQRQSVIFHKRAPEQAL
# Sequence of Endothelin receptor type B (P24530 whole entry): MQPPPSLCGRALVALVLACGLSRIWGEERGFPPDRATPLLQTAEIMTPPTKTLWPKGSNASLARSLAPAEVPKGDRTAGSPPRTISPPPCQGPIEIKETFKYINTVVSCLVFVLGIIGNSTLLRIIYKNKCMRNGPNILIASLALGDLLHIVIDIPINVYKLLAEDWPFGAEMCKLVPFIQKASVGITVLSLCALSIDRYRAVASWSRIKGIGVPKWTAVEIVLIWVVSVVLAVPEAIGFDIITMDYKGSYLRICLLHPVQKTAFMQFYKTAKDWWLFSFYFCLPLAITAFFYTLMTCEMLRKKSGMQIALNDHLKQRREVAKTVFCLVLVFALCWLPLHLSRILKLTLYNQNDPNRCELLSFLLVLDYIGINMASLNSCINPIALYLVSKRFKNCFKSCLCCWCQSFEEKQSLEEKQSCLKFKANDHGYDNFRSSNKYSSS
smiles,measurement,setting,value
c1cncc(C2=NCCCC2)c1 [ANABASEINE],Ratio EC50,[1],7
same,Ratio Ki,[2],7
same,EC50,[3],4.2 µM
same,Ki,[4],32 nM
same,Ki,[5],58 nM
same,Ratio EC50,[6],3
same,EC50,[7],6.7 µM
O=C([O-])c1ccc[n+](CCOC(=O)c2ccc[nH]2)c1,Activity,[8],25.1%
same,Activity,[9],58.1%
same,Activity,[10],65.4%
same,Activity,[11],63.5%
O=C([O-])c1ccc[n+](CCOC(=O)c2cc(Br)c[nH]2)c1,IC50,[12],80 µM
CN(C)CC/C=C/c1cccnc1,IC50,[13],> 10 µM
same,Activity,[14],50%
same,LD50 at 672 h,[15],1.8e+06 µmol/kg
same,IC50,[16],> 10 µM
same,IC50,[17],> 10 µM
same,IC50,[18],> 10 µM
same,Emax,[19],79%
same,IC50,[20],> 10 µM
same,IC50,[21],> 10 µM
same,IC50,[22],> 10 µM
same,LD50 at 672 h,[23],1.8e+06 µmol/kg
same,IC50,[24],> 10 µM
same,Activity,[25],150%
same,IC50,[26],> 10 µM
same,EC50,[27],732 nM
same,IC50,[28],> 10 µM
same,Activity,[29],40%
same,IC50,[30],> 10 µM
same,IC50,[31],> 10 µM
same,Activity,[32],170%
same,IC50,[33],> 10 µM
same,IC50,[34],> 10 µM
same,IC50,[35],> 10 µM
same,LD50 at 672 h,[36],1.8e+06 µmol/kg
same,IC50,[37],> 10 µM
same,IC50,[38],> 10 µM
same,IC50,[39],> 10 µM
same,Activity,[40],190%
same,IC50,[41],> 10 µM
same,IC50,[42],> 10 µM
same,fold change (FC),[43],2
same,Emax,[44],81%
same,LD50 at 672 h,[45],1.8e+06 µmol/kg
same,Activity,[46],492%
same,Activity,[47],150%
same,IC50,[48],> 10 µM
same,Ki,[49],26 nM
Clc1ccc(C2CC3CCC2N3)cn1 (stereo in doubt; (+)) [EPIBATIDINE],ED50,[50],0.289 mg/kg
same,LD50,[51],< 0.125 µmol/kg
same,IC50,[52],0.1 nM
same,ED50,[53],0.02 mg/kg
same,Ki,[54],2.2 nM
same,ED50,[55],0.0136 mg/kg
C[n+]1cccc(C(=O)[O-])c1 [TRIGONELLINE],Ki,[56],13 nM
same,IC50,[57],233 µM
